Source: US20110015393A1, “PHTHALAZINONE COMPOUND” (ASTRAZENECA AB, priority 2009, published 2011)
pIC50: −log10 of the molar value.

Assays:
HeLa cells = test: Potentiation Factor (PF50): MMS growth inhibition, SRB assay; format: cell-based; settings: MMS 0 to 10 μg/ml, ratio of IC50 of control cell growth to IC50 of cell growth + PARP inhibitor
Experimental: The Potentiation Factor (PF50) for compounds is calculated as a ratio of the IC50 of control cell growth divided by the IC50 of cell growth+PARP inhibitor. Growth inhibition curves for both control and compound treated cells are in the presence of the alkylating agent methyl methanesulfonate (MMS). The test compound was used at a fixed concentration of 30 nM and 200 nM. The concentrations of MMS were over a range from 0 to 10 μg/ml. Cell growth was assessed using the sulforhodamine B (SRB) assay (Skehan, P., et al., (1990) New colorimetric cytotoxicity assay for anticancer-drug screening. J. Natl. Cancer Inst. 82, 1107-1112.). 2,000 HeLa cells were seeded into each well of a flat-bottomed 96-well microtiter plate in a volume of 100 μl and incubated for 6 hours at 37° C. Cells were either replaced with media alone or with media containing PARP inhibitor at a final concentration of 30 nM or 200 nM. Cells were allowed to grow for a further 1 hour before the addition of MMS at a range of concentrations (typically 0, 1, 2, 3, 5, 7 and 10 μg/ml) to either untreated cells or PARP inhibitor treated cells. Cells treated with PARP inhibitor alone were used to assess the growth inhibition by the PARP inhibitor. […] Plates were gently shaken and left at room temperature for 30 minutes before measuring the optical density at 564 nm on a Microquant microtiter plate reader.

[1] = target: T1, Mammalian PARP, isolated from Hela cell nuclear extract (Homo sapiens, UniProt P09874); test: PARP inhibition assay (FlashPlate, 3H-NAD incorporation); format: biochemical; settings: PARP enzyme activity; NAD 5 μM, 30° C., 45 minutes
T1 construct: isolated from Hela cell nuclear extract; endogenous in cells; host or cells: HeLa cell nuclear extract
Experimental: In order to assess the inhibitory action of compound 1, the following assay was used to determine the IC50 value.
Mammalian PARP, isolated from Hela cell nuclear extract, was incubated with Z-buffer (25 mM Hepes (Sigma); 12.5 mM MgCl2 (Sigma); 50 mM KCl (Sigma); 1 mM DTT (Sigma); 10% Glycerol (Sigma) 0.001% NP-40 (Sigma); pH 7.4) in 96 well FlashPlates (TRADE MARK) (NEN, UK) and varying concentrations of said inhibitors added. The compound was diluted in DMSO and gave final assay concentrations of between 10 and 0.01 μM, with the DMSO being at a final concentration of 1% per well. The total assay volume per well was 40 μl.
After 10 minutes incubation at 30° C. the reactions were initiated by the addition of a 10 μl reaction mixture, containing NAD (5 μM), ^3H-NAD and 30 mer double stranded DNA-oligos. Designated positive and negative reaction wells were done in combination with compound wells (unknowns) in order to calculate % enzyme activities. The plates were then shaken for 2 minutes and incubated at 30° C. for 45 minutes. […]
The plates were transferred to a TopCount NXT (TRADE MARK) (Packard, UK) for scintillation counting. Values recorded are counts per minute (cpm) following a 30 second counting of each well.
The % enzyme activity for the compound is then calculated using the following equation: […]

P-glycoprotein = target: T2, P-glycoprotein (Homo sapiens, UniProt P08183); test: P-gp substrate activity: Dose Modification Ratio in KBA1 cells with/without Verapamil, SRB assay; format: in vitro ADME; settings: IC50 in absence of Verapamil divided by IC50 in presence of 20 μM Verapamil, 5 days, DMR <1.5 = not a P-gp substrate
T2 construct: Hela cell line known as KBA1, which expressed high P-glycoprotein; endogenous in cells; host or cells: KBA1 cells (HeLa-derived, high P-gp); matched non-expressing line KB31
Experimental: Cells from the Hela cell line known as KBA1, which expressed high P-glycoprotein (ABC1a and ABC1b transporter glycoproteins also known as MDR1a and MDR1b) and the matched non-P-glycoprotein expressing line known as KB31, were seeded onto 96 well tissue culture plates with 80 μl per well of 1.00×10^4 cells/ml=800 cells/well [DMEM, 10% FBS, PSG] and left to adhere for 4 hours. After the incubation period 10 μl per well of 200 μM Verapamil (giving a final conc. of 20 μM) a known inhibitor of P-gp or vehicle media were added to various wells of the cell plates. The 96 well plates were left in the incubator for 1 hour prior to 10 μl of test compound (or the known substrate Etoposide as a reference control) or 10 μl PBS/1% DMSO vehicle (control wells) being added into either Verapamil containing or media control wells. […]
The cell plates were then incubated for 5 days prior to cell growth being assessed using the Sulforhodamine B (SRB) assay as described previously. The P-gp substrate activity for each compound was calculated using the cell growth activity of the tests compounds on the KBA1 cells in the presence or absence (control wells) of Verapamil. The Dose Modification Ratio (DMR) is calculated from the KBA1 where for each test compound a ratio of the IC50 of the compound in the absence of Verapamil is divided by the IC50 of cell growth in the presence of Verapamil. […]

T1 sequence (P09874 whole entry): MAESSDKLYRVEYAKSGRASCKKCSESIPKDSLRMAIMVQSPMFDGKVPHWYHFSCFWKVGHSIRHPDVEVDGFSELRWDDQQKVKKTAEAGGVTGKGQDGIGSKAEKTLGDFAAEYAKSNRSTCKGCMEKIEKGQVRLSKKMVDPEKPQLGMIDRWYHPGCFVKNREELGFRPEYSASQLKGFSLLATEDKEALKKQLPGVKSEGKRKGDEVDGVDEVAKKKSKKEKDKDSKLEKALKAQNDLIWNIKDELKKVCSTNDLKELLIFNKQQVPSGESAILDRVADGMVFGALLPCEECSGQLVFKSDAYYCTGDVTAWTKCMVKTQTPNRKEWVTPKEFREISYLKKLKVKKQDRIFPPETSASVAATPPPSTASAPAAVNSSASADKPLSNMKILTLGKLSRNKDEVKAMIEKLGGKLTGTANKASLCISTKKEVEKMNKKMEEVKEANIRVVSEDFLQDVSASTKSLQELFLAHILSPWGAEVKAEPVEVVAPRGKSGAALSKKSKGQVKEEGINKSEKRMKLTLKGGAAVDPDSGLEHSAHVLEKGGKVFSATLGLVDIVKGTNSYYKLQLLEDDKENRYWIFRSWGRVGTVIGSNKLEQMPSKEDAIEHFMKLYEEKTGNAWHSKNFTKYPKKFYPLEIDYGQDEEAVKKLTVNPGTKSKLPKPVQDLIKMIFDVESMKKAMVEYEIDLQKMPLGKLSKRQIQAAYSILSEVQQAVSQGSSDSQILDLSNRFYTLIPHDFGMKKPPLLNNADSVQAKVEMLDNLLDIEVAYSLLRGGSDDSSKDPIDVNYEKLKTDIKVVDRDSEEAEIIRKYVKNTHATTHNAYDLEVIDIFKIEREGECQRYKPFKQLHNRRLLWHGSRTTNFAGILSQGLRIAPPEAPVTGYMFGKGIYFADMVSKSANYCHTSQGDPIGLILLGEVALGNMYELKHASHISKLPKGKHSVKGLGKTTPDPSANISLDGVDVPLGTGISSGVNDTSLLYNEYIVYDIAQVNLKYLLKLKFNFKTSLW
T2 sequence (P08183 whole entry): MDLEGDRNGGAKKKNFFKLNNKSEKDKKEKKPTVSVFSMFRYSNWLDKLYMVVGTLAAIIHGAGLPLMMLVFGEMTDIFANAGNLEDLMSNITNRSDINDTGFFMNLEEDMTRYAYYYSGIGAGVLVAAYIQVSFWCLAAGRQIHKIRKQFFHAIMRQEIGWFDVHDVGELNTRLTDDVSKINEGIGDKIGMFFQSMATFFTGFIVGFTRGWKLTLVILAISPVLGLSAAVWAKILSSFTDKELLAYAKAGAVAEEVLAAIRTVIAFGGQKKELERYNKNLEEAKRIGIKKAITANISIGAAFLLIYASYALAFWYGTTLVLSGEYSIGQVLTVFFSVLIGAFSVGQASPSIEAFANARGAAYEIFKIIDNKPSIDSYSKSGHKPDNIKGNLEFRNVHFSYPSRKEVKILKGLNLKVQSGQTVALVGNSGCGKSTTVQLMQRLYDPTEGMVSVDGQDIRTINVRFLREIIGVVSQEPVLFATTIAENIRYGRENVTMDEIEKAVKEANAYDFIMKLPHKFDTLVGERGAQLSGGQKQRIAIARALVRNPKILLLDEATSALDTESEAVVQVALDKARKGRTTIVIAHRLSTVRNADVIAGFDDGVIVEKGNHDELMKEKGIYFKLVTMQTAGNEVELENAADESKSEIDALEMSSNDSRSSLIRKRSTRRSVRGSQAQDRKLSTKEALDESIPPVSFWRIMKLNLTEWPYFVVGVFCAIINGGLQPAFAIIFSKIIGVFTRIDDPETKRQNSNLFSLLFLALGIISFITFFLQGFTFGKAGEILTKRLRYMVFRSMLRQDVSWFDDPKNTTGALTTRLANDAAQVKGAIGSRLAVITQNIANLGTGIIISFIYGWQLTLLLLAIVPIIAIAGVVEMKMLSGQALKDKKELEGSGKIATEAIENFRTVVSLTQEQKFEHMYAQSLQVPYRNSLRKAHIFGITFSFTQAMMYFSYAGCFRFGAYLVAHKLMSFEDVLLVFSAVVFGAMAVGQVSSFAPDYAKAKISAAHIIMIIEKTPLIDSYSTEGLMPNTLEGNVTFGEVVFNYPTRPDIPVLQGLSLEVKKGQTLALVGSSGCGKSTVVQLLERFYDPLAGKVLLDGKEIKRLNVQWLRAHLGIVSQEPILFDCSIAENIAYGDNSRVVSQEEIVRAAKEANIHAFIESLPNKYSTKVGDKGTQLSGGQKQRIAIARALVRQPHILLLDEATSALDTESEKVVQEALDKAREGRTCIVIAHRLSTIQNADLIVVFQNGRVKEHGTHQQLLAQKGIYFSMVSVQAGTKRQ

- pIC50 [1]: ~8.30
- Dose Modification Ratio (DMR) (P-glycoprotein): 1.3
Compound: COC1CCN(C(=O)c2cc(Cc3n[nH]c(=O)c4ccccc34)ccc2F)CC1 [Compound 1, 4-(4-Fluoro-3-(4-methoxypiperidine-1-carbonyl)benzyl)phthalazin-1(2H)-one]
- PF50 at 30 nM (HeLa cells; test compound fixed at 30 nM): 3.0
- PF50 at 200 nM (HeLa cells; test compound fixed at 200 nM): 15
